Source: ChEMBL document CHEMBL1201862, “PubChem BioAssay data set” (2004)
Active and inactive are the calls of the source.

Columns and labels:
[1] = T. cruzi growth inhibition in host cells, dose response, cell-based, plate reader, dry powder, set 2 (AID 652275); format: functional
[2] = biological target: T1, Heat shock factor protein 1 (Mus musculus, UniProt P38532); assay: inhibition of MG132-induced HSE-luciferase signal, confirmation, cell-based, NIH3T3, luminescence, dose retest (AID 2382); format: functional;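 also: NIH3T3 fibroblasts with HSF1-driven luciferase reporter stressed by proteasome inhibitor MG132; luminescence from HSF1-driven luciferase expression after 8 hours of MG132 stress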
T1 sequence (P38532 whole entry): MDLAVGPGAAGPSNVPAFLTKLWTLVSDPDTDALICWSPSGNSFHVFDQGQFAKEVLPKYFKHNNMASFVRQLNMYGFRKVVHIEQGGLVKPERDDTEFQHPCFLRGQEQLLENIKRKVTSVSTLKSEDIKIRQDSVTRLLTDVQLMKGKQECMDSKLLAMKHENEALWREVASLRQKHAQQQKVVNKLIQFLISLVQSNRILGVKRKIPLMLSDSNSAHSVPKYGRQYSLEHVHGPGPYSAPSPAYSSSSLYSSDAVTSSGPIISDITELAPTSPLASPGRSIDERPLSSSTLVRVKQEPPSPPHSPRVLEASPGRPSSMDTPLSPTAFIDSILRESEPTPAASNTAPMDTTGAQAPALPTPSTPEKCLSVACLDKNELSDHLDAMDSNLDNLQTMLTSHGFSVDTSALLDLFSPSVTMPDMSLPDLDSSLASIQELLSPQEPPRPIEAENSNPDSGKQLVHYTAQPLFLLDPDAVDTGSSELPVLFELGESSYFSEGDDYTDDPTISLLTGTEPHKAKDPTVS

[3] = inhibitors of PGC1a acetylation in cells, dose response, cell-based, cherry-picked samples (AID 720514); format: functional;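 also: potency may reflect raised or lowered acetylation signal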
[4] = biological target: Sphingosine 1-phosphate receptor 2 (Homo sapiens, UniProt O95136); assay: Dose Response Cell Based Assay for Antagonists of the S1P2 Receptor. [Related pubchem assays: 856, 736 ]; format: functional
Wee1-like protein kinase = Wee1-like protein kinase (Homo sapiens, UniProt P30291); assay: Dose Response Cell-based Assay for Inhibitors of Wee1 Degradation. [Related pubchem assays: 1410, 1321 ]; format: functional
[5] = HEK293T cytotoxicity, dose response, cytotoxicity control for miR-122 modulator project, cell-based, activator set, cherry-pick (AID 720690); format: functional;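 also: HEK293T human cells scored for general mammalian cytotoxicity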
Major prion protein = Major prion protein (Homo sapiens, UniProt P04156); format: functional, cell-based
cells [6] = assay: cells
[7] = miR-122 activators in hepatoma reporter cells, dose response, cell-based, Huh7 psiCHECK-miR122, Renilla luciferase, cherry-picked (AID 651956); format: functional;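 also: huh7 hepatoma cells stably carrying a psiCHECK-2 miR-122 sensor plasmid; renilla luciferase signal reporting endogenous miR-122 activity after 48 h compound exposure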
INS1 = assay: beta cell apoptosis inhibitors, cytokine rescue, dose response, luminescence, retest (AID 449756); format: functional, cell-based; conditions: Rattus norvegicus;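 also: cell death triggered by IL-1 beta plus TNF-alpha plus IFN-gamma mixture; protective hits raise ATP signal compared with cytokine alone wells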
[8] = cytotoxicity in HEK-293T cells, dose response, cytotoxicity control for TCR NF-kB inhibitor project, luminescence, T-cell screen hits (AID 489026); format: functional, cell-based;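 also: cells exposed to compound about 14 hours before the viability readout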
[9] = cytotoxicity in HPDE-C7 cells, cell-based, fluorescence, HTS (AID 430); format: functional; conditions: Homo sapiens
[10] = cytotoxicity in KRAS-transformed pancreatic duct cells, primary screen, cell-based, fluorescence, HTS (AID 431); format: functional; conditions: Homo sapiens;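 also: cell line used: HPDE-C7K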
[11] = biological target: G2/mitotic-specific cyclin-B1 (Homo sapiens, UniProt P14635); assay: Counterscreen assay for inhibitors of Wee1 degradation: dose response cell-based assay to identify inhibitors of cyclin B degradation. [Related pubchem assays: 1410, 1321 ]; format: functional
[12] = HEK293T cytotoxicity, dose response, cytotoxicity control for miR-122 modulator project, cell-based, inhibitor set, cherry-pick, set 2 (AID 720697); format: functional
[13] = biological target: Potassium channel subfamily K member 3 (Rattus norvegicus, UniProt O54912); assay: SAR analysis for the identification of selective inhibitors of the two-pore domain potassium channel TASK1(KCNK3):Automated Electrophysiology.; format: functional
[14] = biological target: Potassium channel subfamily K member 9 (Homo sapiens, UniProt Q9NPC2); assay: TASK3 (KCNK9) channel inhibitors, thallium flux, SAR follow-up, selectivity assay for TASK1 inhibitor project, cell-based, FluxOR thallium flux, concentration-response (AID 652211); format: functional;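 also: potency is for inhibitors of the channel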
[15] = biological target: COUP transcription factor 2 (Homo sapiens, UniProt P24468); assay: Luminescence-based cell-based high throughput dose response assay to identify inhibitors of COUP-TFII (NR2F2).; format: functional;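 also: HEK293 cells transiently cotransfected with COUP-TFII expression vector and reporter; luciferase reporter luminescence driven by COUP-TFII from the pX2-168 reporter plasmid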
Galanin receptor type 3 = biological target: T2, Galanin receptor type 3 (Homo sapiens, UniProt O60755); assay: Fluorescence-based cell-based primary high throughput dose response assay to identify antagonists of the Galanin Receptor 3 (GalR3).; format: functional
T2 sequence (O60755 whole entry): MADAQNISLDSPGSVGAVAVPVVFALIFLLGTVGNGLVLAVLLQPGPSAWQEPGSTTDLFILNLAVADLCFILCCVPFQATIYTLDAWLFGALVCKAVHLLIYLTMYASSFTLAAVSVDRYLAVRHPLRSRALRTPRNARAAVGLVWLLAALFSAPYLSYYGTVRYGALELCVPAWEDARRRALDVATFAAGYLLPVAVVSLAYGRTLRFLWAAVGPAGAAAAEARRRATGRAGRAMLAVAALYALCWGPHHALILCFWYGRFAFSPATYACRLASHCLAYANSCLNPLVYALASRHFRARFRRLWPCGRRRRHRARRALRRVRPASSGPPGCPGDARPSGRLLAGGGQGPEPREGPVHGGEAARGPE

[16] = reduction of Shn3 3'UTR firefly luciferase signal, dose response, Schnurri-3 inhibitor project, cell-based, Clone20 osteoblasts, cherry-pick, set 2 (AID 720490); format: functional;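 also: actives lower the luminescence signal as inhibitors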
cells [17] = format: functional, cell-based; conditions: HEK-CNG
[18] = Shn3 3'UTR reporter inhibitors, dose response, cell-based, Clone20 osteoblasts, firefly luciferase, cherry-picked (AID 624132); format: functional;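 also: firefly luciferase luminescence from reporter carrying the Shn3 3'UTR in osteoblasts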
[19] = control 3'UTR Renilla luciferase suppression, dose response, counter-screen for Shn3 inhibitor project, cell-based, Clone20-Shn3RL, cherry-picked (AID 624133); format: functional
[20] = HepG2 cell cytotoxicity, dose response, cytotoxicity control for Shn3 inhibitor project, CellTiter-Glo, cherry-picked (AID 624134); format: functional, cell-based
cells [21] = format: functional, cell-based
cells [22] = format: functional, cell-based; remark: listed apart in the source
[23] = biological target: T3, Trace amine-associated receptor 1 (Homo sapiens, UniProt Q96RJ0); assay: Counterscreen for agonists of the human trace amine associated receptor 1 (hTAAR1): Fluorescence-based cell-based high throughput dose response assay to identify hTAAR1 agonist that also desensitize TAAR1 receptor response.; format: functional
[24] = biological target: T3, Trace amine-associated receptor 1; assay: Fluorescence-based cell-based high throughput dose response assay to identify agonists of the human trace amine associated receptor 1 (TAAR1).; format: functional
[25] = Luminescence-based cell-based high throughput dose response assay to identify activators of the DAF-12 from the parasite S. stercoralis (ssDAF-12).; format: functional
cells [26] = format: functional, cell-based; remark: listed apart in the source
[27] = biological target: T4, Nuclear receptor subfamily 0 group B member 1 (Homo sapiens, UniProt P51843); format: functional, cell-based
T4 sequence (P51843 whole entry): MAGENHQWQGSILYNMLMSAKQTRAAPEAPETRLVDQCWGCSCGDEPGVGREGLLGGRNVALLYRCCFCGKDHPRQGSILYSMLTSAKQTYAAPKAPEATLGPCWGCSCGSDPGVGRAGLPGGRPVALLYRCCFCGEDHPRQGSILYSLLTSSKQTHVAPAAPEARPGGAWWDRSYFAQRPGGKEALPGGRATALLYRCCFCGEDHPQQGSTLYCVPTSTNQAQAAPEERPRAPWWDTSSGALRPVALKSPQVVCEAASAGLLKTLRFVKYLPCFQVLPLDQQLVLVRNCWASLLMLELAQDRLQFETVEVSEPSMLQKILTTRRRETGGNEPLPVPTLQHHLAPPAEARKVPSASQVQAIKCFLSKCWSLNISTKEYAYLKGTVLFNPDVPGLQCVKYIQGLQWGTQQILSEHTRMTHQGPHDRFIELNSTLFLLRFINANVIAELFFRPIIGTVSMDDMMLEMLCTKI

[28] = human group III sPLA2 inhibitors, dose response, biochemical, QFRET, IC50 (AID 743457);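 also: green fluorescence rise as the enzyme cleaves BODIPY PC-A2 in liposomes; potency for inhibition of the enzyme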
[29] = biological target: T4, Nuclear receptor subfamily 0 group B member 1; assay: Luminescence-based cell-based high throughput dose response assay for inhibitors of the orphan nuclear receptor subfamily 0, group B, member 1 (DAX1; NR0B1). [Related pubchem assays (depositor defined):AID504766, AID504790]; format: functional
[30] = HepG2 cell cytotoxicity, dose response, cytotoxicity control, CellTiter-Glo luminescence, cherry-pick, set 2 (AID 743395); format: functional
[31] = HepG2 cell cytotoxicity, dose response, cytotoxicity control, ATP luminescence, cherry-pick, activator set 2 (AID 1053143); format: functional, cell-based
[32] = CFTR ΔF508 corrector activity in bronchial cells, dose response, human bronchial epithelial cells, plate reader, cherry-pick, two tests (AID 743267); format: functional, cell-based
[33] = HEK293 cell cytotoxicity, dose response, cytotoxicity control, ATP luminescence, dry powder, Set6 (AID 743142); format: functional, cell-based
[34] = A549 cell cytotoxicity, dose response, cytotoxicity control, CellTiter-Glo luminescence, dry powder, set 3 (AID 743146); format: functional, cell-based

With CN(C)C(=O)c1cccc(-c2ccc([C@H]3[C@@H](CO)N4CCCCN(C(=O)C5CCC5)C[C@@H]34)cc2)c1 the AC50 [1] was 1.06 µM (active).
For O=S(=O)(C/C(=C/CO)S(=O)(=O)c1ccccc1)c1ccccc1, the EC50 [2] was 4.31 µM (active), the AC50 [3] was 3.28 µM (active) and the IC50 [4] was 3.07 µM (active). For the same compound, the EC50 (Wee1-like protein kinase) was > 5.53 µM (active), the AC50 [5] was 4.73 µM (active) and the IC50 (Major prion protein) was 9.14 µM (active). For the same compound, the IC50 (cells [6]) was 42.9 µM (inactive), the AC50 [7] was 6.77 µM (active) and the AC50 (INS1) was 9.58 µM (active). For the same compound, the IC50 [8] was 67.1 µM (inactive), the EC50 [9] was 1.92 µM (active) and the EC50 [10] was 2.5 µM (active). The EC50 [11] was > 5.53 µM (active) and the AC50 [12] was 4.09 µM (active).
For COc1ccccc1C(=O)Nc1cccc(NC(=O)c2ccccc2OC)c1, the IC50 [13] was 0.03 µM (active) and the IC50 [14] was 3.62 µM (active).
With O=C(CSc1nnc(-c2cccnc2)s1)Nc1ccnc2ccccc12 the IC50 [15] was 5.33 µM (active), the IC50 (Galanin receptor type 3) was 1.18 µM (active) and the AC50 [16] was 1.19 µM (active). The EC50 (cells [17]) was > 29.9 µM (inactive), the AC50 [18] was 0.661 µM (active) and the AC50 [19] was 2.34 µM (active). For the same compound, the AC50 [20] was 39.3 µM (active).
In the case of CN1CCNC(=O)C1CC(=O)NCCc1ccccc1F (centres undefined), the EC50 (cells [21]) is reported as > 29.9 µM (inactive), the IC50 (cells [22]) is reported as > 29.9 µM (inactive) and the IC50 [23] is reported as 6.6 µM (active). For the same compound, the EC50 [24] was 2.49 µM (active).
In the case of C(=Cc1c[nH]c2ccccc12)c1ccc2ccccc2n1, the IC50 [25] is reported as > 67.5 µM (inactive), the IC50 (cells [26]) is reported as > 67.5 µM (inactive) and the IC50 [27] is reported as 10.3 µM (inactive).
With Cc1ccc(NC(S)=NNC(=O)CSc2nnc(-c3ccc(Cl)cc3)n2C2CCCCC2)cc1 the IC50 [28] was > 40.6 µM (inactive).
For O=C(CCCCCCC(=O)Nc1ccccc1)NO [VORINOSTAT], the IC50 [29] was > 67.6 µM (inactive), the AbsAC35_uM [30] was 0.468 µM and the AC50 [31] was 1.75 µM (active). The AC50 [32] was 0.933 µM (active) and the IC50 [27] was 0.747 µM (active).
In the case of O=C(CCNC(=O)c1ccc(Cl)c(Cl)c1)N[C@@H]1CCCc2ccccc21, the AC50 [33] is reported as 3.34 µM (active) and the AC50 [34] is reported as 26 µM (active).
